Tests used:
[1] = system: patients with mild to moderate hypertension; experiment: Example 19 clinical study: eplerenone versus placebo co-administered with a calcium-channel blocker; assay type: in vivo, human
Text: This multicenter, randomized, double-blind, placebo-controlled, placebo run-in, parallel group trial involving a minimum of 120 randomized patients with hypertension (seated diastolic blood pressure [seDBP] ≧95 mmHg and <110 mmHg and seated systolic BP [seSBP] <180 mmHg while taking a CCB) will consist of a one- to two-week pretreatment screening period followed by a two- to four-week single-blind placebo run-in period and an 8-week double-blind treatment period. Eligible patients will be patients currently receiving a CCB as part of their antihypertensive medication. […] The dose will not be changed for patients with adequate BP control. […] If the dose has been increased at Week 2, the patient will be reassessed at Week 6. […] If BP is uncontrolled at Week 6 and the dose has been increased at Week 2 or Week 4, the patient must be withdrawn from the study. If symptomatic hypotension (i.e., lightheadedness, dizziness, or syncope associated with low BP) occurs at any time during the study, or if DBP is ≧110 mmHg or SBP is ≧180 mmHg at any time during the trial, the patient must be withdrawn. Patients will receive study medication for a total of 8 weeks.
Patients will return to the clinic for evaluations at Weeks 0 (baseline), 2, 4, 6, 8, and 9. Heart rate, BP, adverse events and concomitant medication will be assessed at each visit. Hematology and biochemistry evaluations and urinalysis for safety will be at Weeks 0, 8, and 9. Serum potassium levels will be determined at Weeks 0 (baseline), 2, 4, 6, 8, and 9. Plasma renin, serum aldosterone, and plasma cortisol will be determined at Weeks 0 and 8. A 12-lead electrocardiogram and physical examination will be done at screening and at Week 9.
Eligible patients will be either currently receiving a CCB alone, or receiving a CCB as part of their antihypertensive medication. […] The dose will not be changed for patients with adequate BP control. […] If the dose has been increased at Week 2, the patient will be reassessed at Week 6. The dose of study medication will not be changed for patients with adequate BP control. […] If BP is uncontrolled at Week 6 and the dose has been increased at Week 2 or Week 4, the patient must be withdrawn from the study. The dose of study medication will not be changed for patients with adequate BP control. If symptomatic hypotension (i.e., lightheadedness, dizziness, or syncope associated with low BP) occurs at any time during the study, or if DBP is ≧110 mmHg or SBP is ≧180 mmHg at any time during the study, the patient must be withdrawn. Patients will receive study medication for a total of eight weeks.
Patients will return to the clinic for evaluations at Weeks 0, 2, 4, 6, 8, and 9. Heart rate, BP, adverse events and concomitant medication will be assessed at each visit. Hematology and biochemistry evaluations and urinalysis for safety will be at Weeks 0, 8, and 9. Serum potassium levels will be determined at Weeks 0, 2, 4, 6, 8, and 9. Plasma renin, serum aldosterone, and plasma cortisol will be determined at Weeks 0 and 8. A 12-lead electrocardiogram and physical examination will be done at screening and at Week 9.
The treatment difference will be evaluated based on the mean change from baseline in seated trough cuff DBP at Week 8.

[2] = system: patients with heart failure after an acute myocardial infarction; experiment: Example 20 clinical study: eplerenone plus CCB in heart failure following acute myocardial infarction; assay type: in vivo, human
Text: Clinical Study: Safety and Efficacy of Eplerenone When Co-Administered with a Calcium-Channel Blocker in Patients with Heart Failure Followin Acute Myocardial Infarctiong
Secondary endpoints include cardiovascular morbidity and mortality. The study is a multicenter, randomized, double-blind, placebo-controlled, two-arm, parallel group trial that will continue until 1,012 deaths occur, which is estimated to require approximately 6,200 randomized patients followed for an average of approximately 2.5 years.
Eligible patients may be identified for inclusion at any time following emergency room evaluation and presumptive diagnosis of AMI with HF. […]
Patients will receive CCB therapy and may have received anticoagulants and antiplatelet agents, and may have received thrombolytics or emergency angioplasty. […] Serum potassium will be determined at 48 hours after initiation of treatment, at 1 and 5 weeks, at all other scheduled study visits, and within one week following any dose change.
Study visits will occur at screening, baseline (randomization), 1 and 4 weeks, 3 months, and every 3 months thereafter until the study is terminated. […] Vital signs (seated heart rate and BP), New York Heart Association (NYHA) functional class, adverse events, and selected concurrent medications will be recorded at every visit. […]

[3] = CCB and eplerenone compared to CCB and placebo
[4] = eplerenone plus CCB versus CCB plus placebo, eight weeks, hypertensive patients

COC(=O)[C@@H]1CC2=CC(=O)CC[C@]2(C)C23O[C@@H]2C[C@@]2(C)[C@@H](CC[C@@]24CCC(=O)O4)[C@H]13 (stereo partly drawn) [eplerenone, Pregn-4-ene-7,21-dicarboxylic acid, 9,11-epoxy-17-hydroxy-3-oxo-,γ-lactone, methyl ester, (7α,11α,17β)-]
Active renin levels [1, 3]: greater increase | aldosterone levels [1, 3]: greater increase | serious adverse events ([1]; eplerenone added to CCB therapy): no serious adverse events | change in mean diastolic blood pressure [1, 4]: greater for the dual therapy group, compared to monotherapy, but this difference did not reach statistical significance | change in systolic blood pressure [1, 4]: significant reduction | primary end point of all cause mortality ([2]; eplerenone plus CCB relative to CCB alone): Improvement | secondary end points (cardiovascular mortality, hospitalizations, quality of life etc.) ([2]; eplerenone plus CCB versus CCB alone): Beneficial effects
